How the values were obtained:
[1] = test system: lipopolysaccharide-induced inflammation; test: Acute respiratory tract inflammation suppressing action (Test Example 8); type: in vivo, BALB/c female mice; details: LPS inhalation; for acute respiratory tract inflammation, total infiltrated leucocyte number (WBC): test compound by infusion pump; for acute respiratory tract inflammation, total infiltrated leucocyte (WBC) number: test compound by nebulizer inhalation over 10 minutes
Excerpt: According to Gonzales de Moraes, V L., et al., Br. J. Pharmacol., 123, pp. 631-6, 1998, suppressing action on pulmonary inflammation was studied. BALB/c female mice (7-week old) were used for the test, as the compound administration group and positive control group, each consisting of 7 mice, as well as the negative control group consisting of 5 mice. For induction of inflammation, a 0.03% physiological saline solution of a lipopolysaccharide (LPS, a mixture derived from Escherichia coli O55 and B5 strains, Sigma) was used. A test compound was dissolved in physiological saline to prepare solutions of various concentrations. […] Then, 1 minute after the completion of the inhalation of the lipopolysaccharide solution, the animals were administered with a solution of test compound at various concentrations over 10 minutes by inhalation using the aforementioned nebulizer. The mice of the positive control group were administered with the same volume of physiological saline instead of the test compound solution over 10 minutes by inhalation. The mice of the negative control group were inhaled with physiological saline instead of the lipopolysaccharide solution by inhalation, and then administered with the same volume of physiological saline instead of the test compound solution by inhalation. Three hours after the administration of the test compound, pulmonary cavities of the test animals were washed with physiological saline, and the total infiltrated leucocyte (WBC) number was counted.
Further, after starting the administration of the test compound solution by using an infusion pump, the mice of the drug administration group was inhaled with the lipopolysaccharide solution over 10 minutes by the aforementioned method to induce inflammation. At the same time, the mice of the positive control group were administered with the same volume of physiological saline instead of the test compound, and inflammation was induced by the aforementioned method. For the mice of the negative control group, the same procedure was performed by using physiological saline instead of the test compound, and physiological saline instead of the lipopolysaccharide solution. Three hours after the induction of respiratory tract inflammation, pulmonary cavities of the test animals were washed with physiological saline, and the total infiltrated leucocyte number (WBC) was counted.

[2] = test system: respiratory tract constriction induced by ovalbumin; test: Action of suppressing respiratory tract constriction induced by antigen stimulation (Test Example 3); type: in vivo, Hartley guinea pigs; details: for respiratory tract constriction suppression action by inhalation: 0.1% ovalbumin inhalation, test compound by nebulizer inhalation over 5 minutes; for respiratory tract constriction suppressing action: ovalbumin-immunized guinea pigs, test medicament from cannula in hind leg vein, airway resistance for 15 minutes
[3] = test system: histamine-induced constriction of respiratory tract; test: Action of suppressing respiratory tract constriction induced by constriction elicitor (Test Example 12); type: in vivo, Hartley guinea pigs; details: 100 μl test compound solution sprayed onto the respiratory tract
[4] = test system: intraocular pressure; test: Intraocular pressure reducing action (Test Example 4); type: in vivo, Japanese white rabbit; details: 50 μl of aqueous solution dropped to the left eye
Method: A Japanese white rabbit having a body weight of about 2 kg was placed in a positioner and naturalized for one week before the experiment. An ophthalmologic local anesthesant (Benoxil) was administered to the left eye, and then intraocular pressure was measured by using a tonometer (Classic 30, Solan). The initial value of the intraocular pressure was measured, then 50 μl of an aqueous solution of a test compound was dropped to the left eye at various concentrations, and the intraocular pressure was measured with passage of time.

[5] = test system: cerebral hippocampal neurons; test: Neurite outgrowth action (Test Example 5); type: cell-based, Sprague-Dawley rats; details: neurite length 24 hours after addition
Method: From 18 day-old Sprague-Dawley rats, cerebral hippocampal neurons were prepared according to the method of Neuman et al. (Neuman, H. R. et al., J. Neurosci., 22, pp. 854-862, 2002). The prepared neurons were cultured for 24 hours according to the method of Tanaka et al. (Tanaka, H. et al., J. Cell Biol., 158 (2), pp. 321-329, 2002), then the medium was exchanged with fresh medium, and test medicaments of various concentrations or equivalent amounts of vehicle were added. Twenty-four hours after the addition of the medicaments, neurite length of each neuron was measured for the medicament-added group and the no-addition group, and compared. The neurite length was evaluated according to the method of Neuman et al. (Neuman, H. R. et al., J. Neurosci., 22, pp. 854-862, 2002).

[6] = test system: intraocular pressure; test: Intraocular pressure reduction enhancing action, combination with jointly-used drug (Test Example 13, rabbits); type: in vivo; details: jointly-used drug isopropylunoprostone, dorzolamide hydrochloride, bunazosin hydrochloride or timolol maleate
Excerpt: For evaluation of intraocular pressure reduction enhancing action of a combination of the compound of the present invention and a jointly-used drug other than latanoprost, rabbits were used as experimental animals, and for evaluation of intraocular pressure reduction enhancing action of a combination of the compound of the present invention and latanoprost, monkeys were used. Naturalization of the rabbits, method for measuring intraocular pressure, and preparation of liquid for eye drop were according to those of Test Example 4. The rabbits were divided into a control group, instillation group for test compound solution alone (single active ingredient preparation group 1), instillation group for jointly-used drug alone (single active ingredient preparation group 2), and instillation group for jointly-used drug and test compound solution (combination use group). After initial values of intraocular pressure of the rabbits in each group were measured, 50 μL of a test compound solution in physiological saline at various concentrations was dropped to the eyes of the rabbits of the single active ingredient preparation group 1 and the combination use group, and physiological saline of the same volume was dropped to the eyes of the rabbits of the control group and the single active ingredient preparation group 2. […] Then, the intraocular pressure was measured in time course for each group. […]

[7] = test system: trachea; test: Tracheal relaxation action (Test Example 11); design: species or system Hartley guinea pigs; details: constricted with 10 μM histamine
Method: Hartley guinea pigs (male, 300 to 600 g) were bled to death, and each trachea was extracted. The trachea was first cut on the pair of smooth muscles side along the direction parallel to the smooth muscles, then cut along the cartilage to prepare a sample in the form of a strip having a width of about 2 to 3 mm. After removing […], the sample was suspended with a static load of […] in a Magnus bath containing Krebs-Henseleit solution of 37° C. bubbled with a mixed gas of 95% O2 and 5% CO2. Generated tension was recorded on a recorder via an isometric transducer (FD Pickup TB-612T, Nihon Kohden).
After suspending the sample, and waiting for 1 hour or more until a stable ground line was obtainable, a constriction substance was administered, and then the experiment was started after reproducible constriction was obtainable. During this procedure, the solution in the Magnus bath was changed every about 30 minutes. The sample was constricted with 10 μM histamine, and after the time point that the generated tension was stabilized, a test drug was cumulatively administered at various concentrations to examine change in tension of the sample.

[8] = test system: thoracic aorta; test: Vasoconstriction inhibitory action (Test Example 2); design: species or system Rats (Wistar); details: aorta constricted with phenylephrine (1 μM), test compound (1 μM)
Excerpt: Rats (Wistar, 11-week old) were bleeded to death and laparotomized to take out the thoracic aorta. That aorta was cut into a ring of a length of about 3 mm in a conventional manner (Asano, T., et al., J. Pharmacol. Exp. Ther., 241, pp. 1033-1040 (1987)) and hung in 10-ml organ bath filled with Krebs-Hensright nutrient solution bubbled with a mixed gas of 95% O2 and 5% CO2. One end of the blood vessel was connected to an isometric transducer (FD Pickup TB-912T, Nihon Kohden) and applied with 2.5 g of resting tension, and constriction and relaxation reactions of the aorta were recorded.
The aorta was constricted with phenylephrine (1 μM, Sigma) and then added with a test compound (1 μM), and the vasoconstriction inhibitory action thereof was observed. The vasoconstriction inhibitory actions of the test compounds were calculated as relaxation ratios, which were based on the vasoconstriction with phenylephrine observed immediately before the addition of the test compounds taken as 100%.

[9] = test system: OVA-induced respiratory tract inflammation; test: Chronic respiratory tract inflammation suppressing action (Test Example 7); type: in vivo, BALB/c female mice; details: administration by infusion pump once a day for 5 days
Method: According to Henderson, W. R., et al., Am. J. Respir. Cric. Care Med., 165(1), 108-116 (2002), suppressing action on bronchial inflammation was confirmed. BALB/c female mice (7-week old) were used for the test, which were grouped into a negative control group, a positive control group, and a drug administration group. The mice of each group were intraperitoneally administered with ovalbumin (OVA, 100 ng, Sigma) and 1 mg of aluminum hydroxide for initial immunization, and after 2 weeks, they are subcutaneously administered with 10 μg of OVA as additional immunization. In the following experiments, test compounds are used as a solution obtained by dissolving each compound in water containing 0.5% carboxymethylcellulose. […]
Twenty four hours after the final OVA inhalation or inhalation of physiological saline, pulmonary cavities of the test animals were washed with physiological saline containing 1% BSA, and the total infiltrated white blood cells (WBC) were counted. […]
Twenty four hours after the final drug administration, pulmonary cavities of the test animals were washed with physiological saline, and the total infiltrated white blood cells (WBC) were counted.

Row | Structure (SMILES) | acute respiratory tract inflammation, total infiltrated leucocyte number (WBC) [1] | acute respiratory tract inflammation, total infiltrated leucocyte (WBC) number [1] | respiratory tract constriction suppression action by inhalation [2] | respiratory tract constriction suppressing action [2] | suppression of constriction of respiratory tract induced by histamine [3] | intraocular pressure reducing action [4] | neurite outgrowth [5] | intraocular pressure reducing action, combination use group versus single active ingredient preparation groups 1 and 2 [6] | suppression of constriction of the trachea sample [7] | vasoconstriction inhibitory action [8] | chronic respiratory tract inflammation, total infiltrated white blood cells (WBC) [9]
1 | FC1CNCCC1N1CCc2cncc3cccc1c23 (stereo not shown) | significantly improved the pathological conditions | significantly improved the pathological conditions | significantly improved the constriction of respiratory tract | significant respiratory tract constriction suppressing action | significantly suppressed the constriction of respiratory tract | significant intraocular pressure reducing action | induced significant neurite outgrowth | Enhancement of the intraocular pressure reducing action was also confirmed | significantly suppressed constriction of the trachea sample | had vasoconstriction inhibitory action | significantly improved the pathological conditions
2 | CN(CCO)C1CCC(N2CCc3cncc4cccc2c34)CC1 (stereo not shown) | significantly improved the pathological conditions | significantly improved the pathological conditions | significantly improved the constriction of respiratory tract | significant respiratory tract constriction suppressing action | significantly suppressed the constriction of respiratory tract | significant intraocular pressure reducing action | induced significant neurite outgrowth | Enhancement of the intraocular pressure reducing action was also confirmed | significantly suppressed constriction of the trachea sample | had vasoconstriction inhibitory action | significantly improved the pathological conditions
